Assay results as given in patent publication US5580552A, “7-glycosyloxybenzopyran derivative and antiallergic agent containing the derivative as active ingredient” (priority 1994, dated 1996).

Columns and labels:
[1] = tested on: homologous passive cutaneous anaphylaxis (PCA) reaction; assay: Effect on homologous passive cutaneous anaphylaxis (PCA) reaction in rats; type: in vivo, rats (male wistar); conditions: 50 mg/kg oral, 1 hour before challenge (TABLE 2); for inhibition in vivo at 50 mg/kg: Rattus norvegicus, po, 0.5 h
Experimental: Effect on homologous passive cutaneous anaphylaxis (PCA) reaction in rats.
This experimental animal model is caused by immediate type allergic reaction namely, antigen-antibody reaction. In the following, the method of this pharmacological test will be explained.
Method: Male wistar rats (9 weeks old) were intradermally administered 0.05 ml of anti-serum against dinitrophenylated ascaris (DNP-As) into two sites on the shaved dorsal skin. 48 hours later, 7-glycosyloxybenzopyran derivatives (test compounds) suspended in 0.5% sodium carboxymethylcellulose (CMCNa) were given orally at a dose of 50 mg/kg to the animals. One hour after administration of Test compounds, the animals were induced anaphylaxis by injection of saline (1 ml) dissolving 5 mg of Evans Blue and 1 mg of Trinitrophenylated ascaris (TNP-As) into the tail vein of the animals. 30 minutes after induction of anaphylaxis, animals were anesthetized by ether and killed by bleeding, and were flayed dorsal skin. The determination of extravasated dye was performed according to the method of Katayama et al. (Microbiol. Immunol., Vol.22, P 89-101, 1978). As vehicle control group, only 0.5% CMCNa solution was administered orally, and as positive control group, Tranilast suspended in 0.5% CMCNa was administered orally at a dose of 100 mg/kg to the animals with the same method as the test compounds groups. Each experimental group consisted of 5 rats. [formula]

[2] = tested on: contact dermatitis induced by picryl chloride; assay: Effect on contact dermatitis induced by picryl chloride in mice; type: in vivo; conditions: 50 mg/kg oral, 1 hour before and 16 hours after challenge, 24 hours after challenge; for inhibition in vivo at 50 mg/kg: Mus musculus, po, 24 h, read-out: Inhibition (%) against the increase of ear thickness
Experimental: Effect on contact dermatitis induced by picryl chloride in mice
The delayed type hypersensitization is inhibited by steroid drugs,but can not be effected by known anti-allergic agents. In the following, the method of the pharmacological test will be explained.
Method: Mice, shaved their abdominal skin on previous day, were immunized by applying 0.1 ml of acetone containing 7 mg of picryl chloride to the skin of the abdomen. 7 days after immunization, the thickness of the ear was measured with a dial thickness gauge, then mice were challenged by painting 5 μl of 1% picryl chloride olive oil solution to each side skin of left ear. 24 hours after challenge, the thickness of the left ear was measured again and the increase (%) of thickness was calculated according to equation 2. The compounds of the present invention (test compounds) suspended in 0.5% CMCNa were forcibly administered orally at a dose of 50 mg/kg at 1 hour before and 16 hours after challenge. As vehicle control group, only 0.5% CMCNa solution were administered orally, and as positive control group, Prednisolone, steroid hormone, and Tranilast were administered orally at the doses of 10 mg/kg and 100 mg/kg, respectively.
Increase (%)=(A-B)/B×100 (Equation 2)
A: thickness of the ear at 24 hours after challenge
B: thickness of the ear before challenge
Inhibition (%)=(C-D)/C×100 (equation 3)
C: The increase (%) in vehicle control group
D: The increase (%) in test compounds group or positive control group

[3] = tested on: experimental asthma model (airway resistance); assay: Effect on experimental asthma model in guinea pigs (airway resistance); type: in vivo, guinea pigs (male hartley); conditions: 50 mg/kg oral (TABLE 6); for inhibition in vivo at 50 mg/kg: Cavia porcellus, po, 0.5 h
Experimental: Effect on experimental asthma model in guinea pigs
The asthma is typical allergic disease and we carried out this pharmacological test by well known experimental asthma model in guinea pigs in order to comfirm that the compounds of the present invention suppress the asthma. In the following, the method of the pharmacological test will be explained.
Method: Male hartley guinea pigs were immunized by intraperitoneal injection of saline (1ml) containing 5 mg of ovalbumine (OVA) three times at interval of one week. 2 weeks after final immunization, the animals were challenged by inhalation of 1% OVA-saline solution for 1 minute and then the airway resistance of the animals were measured for 30 minutes with PULMOS-1 (Medical Interface Project Station Inc.) after the inhalation. The compounds of the present invention (test compounds) suspended in 0.5% CMCNa were given orally at a dose of 50 mg/kg. As positive control group, Disodium Cromoglicate (DSCG), well known anti-allergic agent, in saline were injected at a dose of 20 mg/kg into the vein of the animals. As vehicle control group, only 0.5% CMCNa solution were given orally. The inhibition (%) of the airway resistance in vehicle control group was calculated according to equation 5 and the result was shown in TABLE 6. Each experimental group consisted of 5 guinea pigs. [formula]
A: Maximum airway resistance in vehicle control group
B: Maximum airway resistance in test compounds group or positive control group

Row | Compound | inhibition in vivo at 50 mg/kg [1] | inhibition in vivo at 50 mg/kg [2] | inhibition in vivo at 50 mg/kg [3] | Inhibition (%) of PCA reaction [1] | Inhibition (%) against the increase of ear thickness [2] | Inhibition (%) of the airway resistance [3]
1 | CCCCCCOc1c(OC(C)=O)c(=O)oc2cc(O[C@@H]3O[C@H](COC(C)=O)[C@H](OC(C)=O)[C@H](OC(C)=O)[C@H]3OC(C)=O)ccc12 [compound 15, 3-acetoxy-4-hexyloxy-7-(tetra-O-acetyl-β-D-galactopyranosyloxy)-2H-1-benzopyran-2-one] | 40.1% | 41.2% | 42.1% | – | – | –
2 | CCC=CCCOc1c(O)c2ccc(O[C@H]3O[C@H](CO)[C@@H](O)[C@H](O)[C@@H]3O)cc2oc1=O [compound 70] | 51.3% | 52.1% | 65.6% | – | – | –
3 | CCCCCCCCOc1c(O)c2ccc(O[C@@H]3O[C@H](CO)[C@H](O)[C@H](O)[C@H]3O)cc2oc1=O [compound 88] | 61.5% | 66.8% | 80.2% | – | – | –
4 | CCC=CCCOc1c(O)c(=O)oc2cc(O[C@@H]3O[C@H](CO)[C@@H](O)[C@H](O)[C@H]3O)ccc12 [compound 116] | 46.1% | 44.4% | 62.8% | – | – | –
5 | O=c1oc2cc(O[C@H]3O[C@H](CO)[C@@H](O)[C@H](O)[C@@H]3O)ccc2c(O)c1O [compound 130] | – | – | – | 40.1% | 41.2% | 40.2%
6 | CC(C)=CCC/C(C)=C/COc1c(O)c2ccc(O[C@H]3O[C@H](CO)[C@@H](O)[C@H](O)[C@@H]3O)cc2oc1=O [compound 71] | 49.8% | 47.4% | 63.2% | – | – | –
7 | CCCCCCCCCCOc1c(O)c(=O)oc2cc(O[C@H]3O[C@H](CO)[C@@H](O)[C@H](O)[C@@H]3O)ccc12 [compound 133] | 42.3% | 41.4% | 43.2% | – | – | –
8 | COc1c(O)c2ccc(O[C@H]3O[C@H](CO)[C@@H](O)[C@H](O)[C@@H]3O)cc2oc1=O [compound 8, 3-methoxy-4-hydroxy-7-(α-D-mannopyranosyloxy)-2H-1-benzopyran-2-one] | 49.2% | 50.3% | 59.2% | – | – | –
9 | CCCCCCCCCCOc1c(O)c2ccc(O[C@H]3O[C@H](CO)[C@@H](O)[C@H](O)[C@@H]3O)cc2oc1=O [compound 65] | 52.1% | 50.3% | 49.3% | – | – | –
10 | CCCCCCCCCCOc1c(O)c(=O)oc2cc(O[C@@H]3O[C@H](CO)[C@@H](O)[C@H](O)[C@H]3O)ccc12 [compound 111] | 43.1% | 41.2% | 61.3% | – | – | –
11 | CC(C)Oc1c(O)c2ccc(O[C@H]3O[C@H](CO)[C@@H](O)[C@H](O)[C@@H]3O)cc2oc1=O [compound 67] | 50.4% | 53.2% | 60.2% | – | – | –
12 | CCC=CCCOc1c(O)c(=O)oc2cc(O[C@H]3O[C@H](CO)[C@@H](O)[C@H](O)[C@@H]3O)ccc12 [compound 138] | 42.5% | 44.7% | 50.8% | – | – | –
13 | CCCCCCOc1c(O)c2ccc(O[C@@H]3O[C@H](CO)[C@H](O)[C@H](O)[C@H]3O)cc2oc1=O [compound 87] | 60.3% | 64.9% | 79.5% | – | – | –
14 | CCCCCCOc1c(O)c2ccc(O[C@H]3O[C@H](CO)[C@@H](O)[C@H](O)[C@@H]3O)cc2oc1=O [compound 63] | 55.7% | 53.1% | 53.2% | – | – | –
15 | CCCCCCCCCCCCOc1c(O)c2ccc(O[C@H]3O[C@H](CO)[C@@H](O)[C@H](O)[C@@H]3O)cc2oc1=O [compound 66] | 49.3% | 51.4% | 54.3% | – | – | –
16 | CCCCCCOc1c(OCc2ccccc2)c2ccc(O[C@@H]3O[C@H](COC(C)=O)[C@H](OC(C)=O)[C@H](OC(C)=O)[C@H]3OC(C)=O)cc2oc1=O [compound 75] | 45.5% | 40.3% | 43.5% | – | – | –
17 | CCCCCCOc1c(O)c(=O)oc2cc(O[C@H]3O[C@H](CO)[C@@H](O)[C@H](O)[C@@H]3O)ccc12 [compound 20, 3-hydroxy-4-hexyloxy-7-(α-D-mannopyranosyloxy)-2H-1-benzopyran-2-one] | 42.3% | 45.2% | 55.4% | – | – | –
18 | O=c1oc2cc(O[C@@H]3O[C@H](CO)[C@@H](O)[C@H](O)[C@H]3O)ccc2c(O)c1OCc1ccccc1 [compound 47] | 52.1% | 51.9% | 59.1% | – | – | –
19 | CC(C)Oc1c(O)c(=O)oc2cc(O[C@H]3O[C@H](CO)[C@@H](O)[C@H](O)[C@@H]3O)ccc12 [compound 135] | 40.3% | 44.6% | 47.1% | – | – | –
20 | O=c1oc2cc(O[C@@H]3O[C@H](CO)[C@@H](O)[C@H](O)[C@H]3O)ccc2c(OCc2ccccc2)c1O [compound 152] | 41.3% | 43.2% | 52.4% | – | – | –
21 | CCCCOc1c(OC(=O)CC)c(=O)oc2cc(O[C@@H]3O[C@H](COC(C)=O)[C@@H](OC(C)=O)[C@H](OC(C)=O)[C@H]3OC(C)=O)ccc12 [compound 99] | 40.2% | 40.3% | 39.2% | – | – | –
22 | C=COc1c(O)c2ccc(O[C@@H]3O[C@H](CO)[C@H](O)[C@H](O)[C@H]3O)cc2oc1=O [compound 93] | 55.2% | 56.4% | 69.7% | – | – | –
23 | C=COc1c(O)c(=O)oc2cc(O[C@@H]3O[C@H](CO)[C@@H](O)[C@H](O)[C@H]3O)ccc12 [compound 115] | 42.2% | 40.2% | 53.1% | – | – | –
24 | C=COc1c(O)c(=O)oc2cc(O[C@@H]3O[C@H](CO)[C@@H](O)[C@H](O)[C@H]3O)ccc12 [compound 158] | – | – | – | 44.3% | 48.2% | 42.3%
25 | O=c1oc2cc(O[C@H]3O[C@H](CO)[C@@H](O)[C@H](O)[C@@H]3O)ccc2c(OCc2ccccc2)c1O [compound 140] | 40.4% | 40.1% | 45.1% | – | – | –
26 | O=c1oc2cc(O[C@@H]3O[C@H](CO)[C@H](O)[C@H](O)[C@H]3O)ccc2c(O)c1OCc1ccccc1 [compound 96] | 50.1% | 48.9% | 58.2% | – | – | –
27 | CCCCCCCCOc1c(O)c2ccc(O[C@@H]3O[C@H](CO)[C@@H](O)[C@H](O)[C@H]3O)cc2oc1=O [compound 39] | 62.2% | 65.1% | 77.8% | – | – | –
28 | CC1CCC(Oc2c(O)c(=O)oc3cc(O[C@@H]4O[C@H](CO)[C@@H](O)[C@H](O)[C@H]4O)ccc23)CC1 (stereo partly drawn) [compound 114] | 45.3% | 47.3% | 59.7% | – | – | –
